Laboratory results taken from patent publication US20040219173A1, “METHOD FOR TREATING HIV” (priority 2000, published 2004).
Read-outs that look alike come from different tables or passages of the source.

Key:
[1] = Complications from use of the NaCl tablets in the test subjects; type: in vivo, human; conditions: Example II, 12 subjects, 250 mg tablets
Procedure: 12 representative persons would be treated by the inventive method, but with a 250 mg tablet of solid NaCI (except certain other ingredients also are incorporated into the tablets, for a total of 250 mg, for test subject nos. 11 and 12, as further discussed below).

[2] = cited from earlier work

[Cl-].[Na+] [NaCI, sodium chloride]
complications from use of the tablets [1]: No complications
saturation in water ([2]; 0°C): about 35.7 % by weight
saturation in water ([2]; room temperature (72°F, 22.2°C)): about 32.6 % by weight
